# Reference: US5585380A, “Modulation of cellular response to external stimuli” (priority 1995, dated 1996)
# How the values were obtained:
# [1] = test system: NIH3T3 cell line (D5C3) transformed with temperature-sensitive v-abl mutant gene; experiment: Blocking transformed phenotype of D5C3 cells; format: cell-based, murine; conditions: pentoxifylline 1 mM, Ciprofloxacin 50 μg/ml
# Experimental: An NIH3T3 cell line ([MUT]) provides target cells which were transformed by an activated oncogene. The cells were transformed with a temperature-sensitive v-abl mutant gene. This mutant gene encodes a temperature-sensitive v-abl protein that produces a non-oncogenic product at a non-permissive temperature due to a lack of tyrosine phosphorylation. The cells were incubated at the permissive temperature (33° C.) for 5 days after passage with and without pentoxifylline (1 mM).
# [2] = test system: T cell proliferation; conditions: Singer et al., Bone Marrow Transplantation (in press); cited from earlier work
# [3] = test system: PA and DAG levels in human glomerular mesangial cells; experiment: Invention assay: HPLC of lipids from IL-1-stimulated mesangial cells; format: cell-based; conditions: HMC incubated with diacylglycerol kinase inhibitor
# Experimental: The compounds of Formula I are shown to modulate the effects of primary stimuli which elevate levels of the relevant subspecies of PA and DAG using the assay system of the invention. In general for the assay, the cells to be tested are first incubated with the primary stimulating agent for various time periods and fixed in ice-cold methanol. The lipids are extracted using, for example, chloroform:methanol 2:1 (v/v), and the extracts are then subjected to HPLC as described by Bursten and Harris, Biochemistry (1991)------. In this method, a Rainin mu-Porasil column is used with a 3:4 hexane:propanol organic carrier and a 1-10% water gradient during the first 10 minutes of separation. Detection of the peaks in the elution pattern is by absorption in the range of ultraviolet which detects isolated double bonds. Thus, the relevant peaks of unsaturated PA and DAG are shown in the elution pattern. It is important to note that the assay method permits discrimination between various forms of PA and DAG so that those relevant to the pathway affected by the compounds of Formula I can be measured directly. Confirmation of the nature of the acyl substituents of these components is accomplished using fast-atom bombardment mass spectroscopy. Thus, the relevant unsaturated (non-arachidonic) PA and DAG subspecies may be detected. The time periods employed are 5-60 seconds after stimulation with the primary stimulus, such as a cytokine. This technique permits assessment of the levels of various lipid components as a function of time.
# To test the effect of the compounds of the invention, the candidate compound is included in the initial incubation at various concentrations. Fixing, extraction and HPLC are conducted as above. The effect of the candidate compound is then reflected in a lowering of the relevant PA and DAG levels as compared to the cells without candidate in the control as illustrated hereinbelow.
# Human glomerular mesangial cells were incubated with IL-1 for various time periods of 5-60 seconds and the cells were fixed in ice-cold methanol, and the lipids extracted using chloroform:methanol 2:1 (v/v). It is very important that the fixing/extraction process be conducted quickly so that the decomposition of unstable intermediates is halted.
# The extracts were subjected to HPLC on a Rainin mu-Porasil column with a 3:4 hexane:propanol organic carrier and a 1-10% water gradient during the first 10 minutes of separation. The relative concentration of each lipid species is determined using absorption at 206 nm (A206), which follows unsaturated acyl content of lipid species. […] The absolute mass of each lipid species is determined by lisolation of the lipid using a fraction collector, repurification on the HPLC column. […] Protein concentration is determined using the Bradford technique. […]
# [4] = test system: recipients of marrow from unrelated donors; experiment: Unrelated donor trial; format: in vivo, human
# Excerpt: (§1) They are given steroids to reduce inflammation. […] In this group of patients, GVHD approaches 90%.
# [5] = test system: patients undergoing allogeneic bone marrow transplant; experiment: Preliminary study in allogeneic bone marrow transplant patients; format: in vivo, human; conditions: first 30 days post-transplant; PTX/CIPRO N=10, GM-CSF N=27; all also PD and cyclosporin
# Experimental: A preliminary study was conducted on patients undergoing allogeneic bone marrow transplant for multiple myeloma, for lymphoid malignancies, or for advanced stage CML or AML. Prednisone is often administered as an immunosuppressant in all experimental groups. In the study, these patients received the drugs for a minimum of 3 days to a maximum of 7 days prior to starting their preparative regimen while in the outpatient department according to the following regimen:
# PTX: 600 mg p.o. qid at 9 am, 1 pm, 5 pm and 9 pm;
# CIPRO: 500 mg p.o.b.i.d.; and
# PD: 0.5 mg/kg b.i.d. (total 1 mg/kg/day changed to methylprednisolone at an equivalent dose starting on day -1).
# For the duration of therapy, the patients are continued on the study drugs as follows:
# PTX: until day +20 post-transplant then tapered 600 mg/day until off;
# CIPRO: until day 30 post-transplant or day of discharge if sooner than day 30; and
# PD: tapered starting on day 0 over 14 days until off.
# All patients in these studies received PD and cyclosporin as GVHD prophylaxis. Granulocyte recovery was measured post-bone marrow transplant in patients receiving therapy with PTX, CIPRO in addition to standard PD administration (N=10), or GM-CSF (N=10), or PTX (N=4).
# [6] = test system: recipients of matched allogeneic donor marrow; experiment: Matched allogeneic donor trial; format: in vivo, human
# Excerpt: as §1
# [7] = day on which ANC ≥ 100 cells/uL on two consecutive days
# [8] = day on which ANC ≥ 1,000 cells/uL on two consecutive days
# [9] = first day RBC count ≥ 30% for 7 consecutive days untransfused
# [10] = first day platelet count ≥ 20,000/uL for 7 consecutive days untransfused
# [11] = initial discharge from the hospital
# [12] = maximum serum bilirubin days 0-28 post BMT
# [13] = maximum serum creatinine day 0-28 post BMT
compound,measurement,setting,value
O=C(O)c1cn(C2CC2)c2cc(N3CCNCC3)c(F)cc2c1=O [Ciprofloxacin],effect on the transformed phenotype,[1],significant effect
"Cn1c(=O)n(CCCCC(C)(C)O)c(=O)c2[nH]cnc21 [HWA138, reference compound]",suppression of T cell proliferation,[2],minimal or no suppression
"CCOCn1cnc2c1c(=O)n(CCCCC(C)(C)O)c(=O)n2C [HWA448, reference compound]",suppression of T cell proliferation,[2],active
"CC(O)CCCCn1c(=O)c2c(ncn2C)n(C)c1=O (stereo not shown) [M1, 1-(5-hydroxyhexyl)-3,7-dimethylxanthine]",suppression of T cell proliferation,[2],active
"CC(O)C(O)CCCn1c(=O)c2c(ncn2C)n(C)c1=O (stereo not shown) [M3, 1-(4,5-dihydroxyhexyl) -3,7-dimethylxanthine]",suppression of T cell proliferation,[2],minimal or no suppression
"Cn1cnc2c1c(=O)n(CCCCC(=O)O)c(=O)n2C [M4, 1-(4-carboxybutyl)-3,7-dimethylxanthine]",suppression of T cell proliferation,[2],minimal or no suppression
"Cn1cnc2c1c(=O)n(CCCC(=O)O)c(=O)n2C [M5, 1-(3-carboxypropyl)-3,7-dimethylxanthine]",suppression of T cell proliferation,[2],minimal or no suppression
Cc1nc2sccn2c(=O)c1CCN1CCC(=C(c2ccccc2)c2ccc(F)cc2)CC1 [R 50922],HPLC pattern (reappearance of PA after IL-1),[3],does not alter the HPLC pattern
GM-CSF: granulocyte-macrophage colony-stimulating factor,"ANC ≤ 100, mean ± standard deviation",[4],12 ± 7 days
same,"ANC ≥ 100, mean ± standard deviation",[4],18 ± 6 days
same,"ANC ≥ 100, median",[4],18.5 days
same,"ANC ≥ 500, mean ± standard deviation",[4],23 ± 4 days
same,"ANC ≥ 500, median",[4],22.5 days
same,"ANC ≥ 1,000, mean ± standard deviation",[4],26 ± 5 days
same,"ANC ≥ 1,000, median",[4],26.0 days
same,"Bili ≥ 5.0 mg/dL, patients",[4],46%
same,Day 100 Survival,[4],86%
same,"Day initial discharge, mean ± standard deviation",[4],37 ± 14 days
same,"Day initial discharge, median",[4],37.0 days
same,GVHD Grade 0,[4],15%
same,GVHD Grade I,[4],8%
same,GVHD Grade II,[4],46%
same,GVHD Grade III,[4],27%
same,GVHD Grade IV,[4],4%
same,Infection 0-28,[4],7%
same,"Last plt day, mean ± standard deviation",[4],26 ± 6 days
same,"Last plt day, median",[4],24.5 days
same,"Max Bili, mean ± standard deviation",[4],7 ± 7 mg/dL
same,"Max Bili, median",[4],5.5 mg/dL
same,"Max Creat, mean ± standard deviation",[4],1.4 ± 1.2 mg/dL
same,"Max Creat, median",[4],1.1 mg/dL
same,"Units platelets, mean ± standard deviation",[4],90 ± 42 units
same,"Units platelets, median",[4],92.0 units
same,"ANC ≤ 100, median","[4]; GM-CSF 30, PTX/CIPRO 17 patients",12 days
same,platelet transfusion requirement,[5],87±69 units
same,red blood cell requirement,[5],24.7±24 units
same,"ANC ≥ 100, mean ± standard deviation",[6]; [7],8 ± 6 days
same,"ANC ≥ 100, median",[6]; [7],9.0 days
same,"ANC ≥ 1,000, mean ± standard deviation",[6]; [8],16 ± 9 days
same,"ANC ≥ 1,000, median",[6]; [8],14.0 days
same,"Bili ≥ 5.0 mg/dL, patients",[6]; days 0-28 post BMT,44%
same,"Creat ≥ 2.0 mg/dL, patients",[6]; days 0-28 post BMT,22%
same,"ANC ≤ 100, mean ± standard deviation",[6]; days below 100 cells/uL,6 ± 4 days
same,"ANC ≤ 100, median","[6]; days below 100 cells/uL, GM-CSF 27, PTX/CIPRO 23 patients",5.0 days
same,"Last RBC day, mean ± standard deviation",[6]; [9],63 ± 39 days
same,"Last RBC day, median",[6]; [9],59.0 days
same,"Last plt day, mean ± standard deviation",[6]; [10],17 ± 11 days
same,"Last plt day, median",[6]; [10],23.0 days
same,"Day discharge, mean ± standard deviation",[6]; [11],26 ± 13 days
same,"Day discharge, median",[6]; [11],24.0 days
same,"Max Bili, mean ± standard deviation",[6]; [12],8 ± 10 mg/dL
same,"Max Bili, median",[6]; [12],5.0 mg/dL
same,"Max Creat, mean ± standard deviation",[6]; [13],1.8 ± 1.4 mg/dL
same,"Max Creat, median",[6]; [13],1.5 mg/dL
same,Day 100 Survival,[6]; patients alive 100 days post transplant,69%
same,Infection 0-28,[6]; patients with positive bacterial blood cultures days 0-28 post BMT,14%
same,"Units platelets, mean ± standard deviation",[6]; platelets transfused day 0-28,87 ± 74 units
same,"Units platelets, median",[6]; platelets transfused day 0-28,74.0 units
